Tested on: colon carcinoma cell lines
Assay: Inhibition of the proliferation of tumour cells in vitro (propidium iodide uptake)
Format: cell-based
Details: 72 h, 10,000 cells per well, 3 days incubation at 37° C., propidium iodide/NP40 fluorescence, % of control
From the text: The antiproliferative action can be tested in an HCT116 proliferation assay.
The present experimental description describes the inhibition of tumour cell proliferation by active ingredients.
The cell proliferation is estimated by measurement of the uptake of propidium iodide. […] It is prevented from entering healthy cells. However, if cells have been killed by addition of the detergent NP40, cell membrane and nuclear membrane become permeable. PI attaches itself to the DNA of the cell nuclei and fluoresces in this complex. This fluorescence is measured in the fluorimeter.
commercially available colon carcinoma cell lines
10,000 cells are plated out per well, in a volume of 180 μl, in a 96-hole plate. The outer rows A1-12, 1A-H, 12A-H and H1-12 are only filled with 200 μl of medium or buffer.
The cells are incubated for 24 hours, at 37° C. and 10% CO2 gassing.
In order to test active substances, the corresponding dilutions must first be produced and assigned to the wells. The scheme of a 1:3 dilution indicated here as an example can be varied correspondingly as desired. The scheme described is designed for 4 test substances.
20 μl of medium, solvent dilution or the corresponding dilution of the positive control (IC50) are pipetted into these holes.
Substance groups (column B-G, wells 2-9): 20 μl of substance dilution are pipetted into these holes.
147 μl of medium is introduced into each of the wells of row B of the extra plate in columns 1, 2, 3, 4, and 3 μl of the test substance are added (=300 μM). 100 μl of medium are introduced into rows C-G, columns 1-4. 50 μl are then transferred into row C using a multichannel pipette, mixed 8×, and 50 μl are then transferred from this row into row D. This is continued correspondingly until row G has been reached, in which, after mixing, 50 μl of the dilution are removed and discarded. 100 μl of each desired dilution are now located in the extra plate, and it is now only necessary to transfer 20 μl directly into the test plate.
The plate is incubated at 37° C. and 10% CO2 gassing for 3 days.
The cells multiplying in this time are determined by means of propidium iodide.
20 μl of PI stock solution and 10 μl of NP40 stock solution are required per well. Since each plate has 72 wells charged with PI and with NP40, 1440 μl of the PI stock solution and 720 μl of the NP40 stock solution are required per plate. Taking into account pipetting losses, 1.8 ml of PI stock solution are thus taken and mixed with 0.9 ml of the NP40 stock solution immediately before pipetting in. 30 μl of the PI/NP40 mixture are now pipetted into each of the wells of the plate, each of which contain 200 μl of medium. The plate is subsequently placed in the incubator for 2 hours.
The plate(s) is measured in a fluorescence photometer at a wavelength Ex. 520 nm and Em of 620 nm. The background (=medium+PI) is subtracted from all values, which are subsequently averaged (double values) and expressed or calculated in % of control.
An IC50 (half-maximum action) can now be calculated using a statistics program such as, for example, RS1.
Prepare the desired stock solution at […] in DMSO. Adjust to ten times the concentration to be tested in the cell culture (see above) by dilution in culture medium.

Compound	IC50 [nM]
O=C(Nc1cc(Cl)c2cccnc2c1O)C(Cc1ccccn1)c1ccccc1 (stereo not drawn) [Compound A3, N-(5-chloro-8-hydroxyquinolin-7-yl)-2-phenyl-3-pyridin-2-ylpropionamide]	1100
O=C(CC(c1ccccc1)c1ccccc1)Nc1cc(Cl)c2cccnc2c1O [Compound A1, N-(5-chloro-8-hydroxyquinolin-7-yl)-3,3-diphenylpropionamide]	90
O=C(Nc1cc(Cl)c2cccnc2c1O)NC(c1ccccc1)c1ccccn1 (stereo not drawn) [Compound A14, 1-(5-chloro-8-hydroxyquinolin-7-yl)-3-(phenylpyridin-2-ylmethyl)urea]	90
CCOc1ccccc1NC(=O)Nc1ccc2cccnc2c1O [Compound A20, 1-(2-Ethoxyphenyl)-3-(8-hydroxyquinolin-7-yl)-urea]	210
O=C(Nc1ccc(C(F)(F)F)cc1)Nc1ccc2cccnc2c1O [Compound A19, 1-(8-Hydroxyquinolin-7-yl)-3-(4-trifluoromethylphenyl)urea]	1500
O=C(Nc1cc(Cl)c2cccnc2c1O)C(c1ccccc1)c1ccccc1 [Compound A2, N-(5-chloro-8-hydroxyquinolin-7-yl)-2,2-diphenylacetamide]	2100
